Measured values as given in US20100255117A1, “METHODS AND COMPOSITIONS FOR THE TREATMENT OF CANCER” (The Johns Hopkins University, priority 2007, published 2010).

What was measured:
A549 cells [1] = test: Clonogenic survival after ionizing radiation, A549; format: cell-based, human; details: A549-NRF2 shRNA cells
Protocol: (§1) Clonogenic assays: Exponentially growing cells were counted, diluted and seeded in triplicate at 1000 cells per culture dish (100 mm). Cells were incubated for 24 h in a humidified CO2 incubator at 37° C., exposed to high dose rate (0.68Gy/min) radiation using a Gamma cell 40 ^137Cs irradiator (Atomic Energy of Canada, Ltd). To assess clonogenic survival following radiation exposure, cell cultures were incubated in complete growth medium at 37° C. for 14 days and then stained with 50% methanol-crystal violet solution. Only colonies with more than 50 cells were counted, and the surviving fraction was calculated and compared to the control.

H460 cells = test: Clonogenic survival after ionizing radiation, H460; format: cell-based, human; details: H460-NRF2 shRNA cells
Protocol: as §1

ROS = test: Measurement of ROS levels (c-H2DCFDA, flow cytometry); format: cell-based, human; details: NAC for 30 mins
Protocol: Measurement of ROS levels: Cells were incubated with 10 μM c-H2DCFDA (molecular probes, Invitrogen, CA) for 30 mins at 37° C. to assess the ROS mediated oxidation to the fluorescent compound c-H2DCF. Fluorescence of oxidized c-H2DCF was measured at an excitation wavelength of 480 nm and an emission wavelength of 525 nm using a FAC Scan flow cytometer (Becton Dickinson).

A549-C8-luc cells = test: Orthotopic A549-C8-luc lung tumor model, inhaled siRNA with or without carboplatin; format: in vivo, SCID-Beige mice; details: carboplatin 30 mg/kg i.p. twice/week, 4 weeks
Protocol: Experimental Lung Metastasis: In experimental metastasis experiments, 2×10^6 A549-C8-luc cells were injected into SCID-Beige mice (Charles River, Mass.) intravenously. For delivery of siRNA into lung tumors, 100 μg of siRNA duplex diluted in PBS was aerosolized using a nebulizer. Mice were given three doses of siRNA (100 μg/dose) every week, for 4 weeks, using a nebulizer. Intraperitoneal injections of carboplatin were given at a dose of 30 mg/kg body weight twice/week. All experimental animal protocols were performed in accordance with guidelines approved by the animal care committee at the Johns Hopkins University Bloomberg School of Public Health.
In Vivo Imaging: For luminescent imaging, animals inoculated with A549-C8-luc cells, which express a luciferase reporter gene, were anesthetized and injected intraperitoneally with 250 ul of luminescent substrate (15 mg/ml stock) D-Luciferin Firefly (Xenogen Cat# XR-1001). The animals were then imaged and analyzed by using the Xenogen IVIS Optical Imaging Device in the Johns Hopkins Oncology Center.

A549 cells [2] = test: A549 subcutaneous tumor xenograft, intratumoral siRNA with or without carboplatin/radiation; format: in vivo, athymic nude mice
Protocol: Tumor Xenografts and siRNA Treatment: We injected A549 cells (5×10^6) and H460 cells (2×10^6) subcutaneously into the hind leg of male athymic nude mice and measured the tumor dimensions by caliper once per week. The tumor volumes were calculated using the following formula: [length (mm)×width (mm)×width (mm)×0.52]. For in vivo delivery of siRNA into tumors, siRNA duplexes diluted in PBS were injected into the tumors using insulin syringes at a concentration of 10 μg of siRNA/50 mm^3 of tumor volume. Intraperitoneal injections of carboplatin were given at a dose of 40 mg/kg body weight. Both siRNA and carboplatin were administered twice weekly for 4 weeks. Upon termination, tumors were harvested and weighted. For radiation exposure, mice with subcutaneous tumors were exposed to high dose rate radiation (2 dose of 3Gy each) using a Gamma cell 40 ^137Cs irradiator (Atomic Energy of Canada, Ltd).
Statistical Analysis—Statistical comparisons were performed by Student's t-tests or Wilcoxon rank-sum test. A value of p<0.05 was considered statistically significant. Tumor weights and changes in tumor volume were summarized using descriptive statistics. Differences in tumor measures between treatment groups were examined using linear regression models with generalized estimating equations (GEE). The distributions of both tumor measurements were skewed, so log transformations were used.

Compound	cell survival after radiation with NAC pretreatment (A549 cells [1])	cell survival after radiation with NAC pretreatment (H460 cells)	reduction of ROS production / mean fluorescent intensity (ROS; A549-NRF2shRNA cells) [%]	reduction of ROS production / mean fluorescent intensity (ROS; H460-NRF2shRNA cells) [%]	ratio of lung weights, siRNA vs siRNA+carboplatin treated tumors (A549-C8-luc cells)	ratio of differences in change in tumor volume, siRNA+carboplatin vs siRNA (A549 cells [2]; experiment 1)	ratio of tumor weights, siRNA vs siRNA+carboplatin treated tumors (A549 cells [2]; experiment 1, carboplatin 40 mg/kg i.p. twice weekly)	ratio of differences in change in tumor volume, siRNA+carboplatin vs siRNA+radiation (A549 cells [2]; experiment 1, not significant)	ratio of tumor weights, siRNA+carboplatin vs siRNA treated tumors (A549 cells [2]; second experiment)
CC(=O)N[C@@H](CS)C(=O)O [NAC, N-acetyl cysteine]	significantly increased cell survival	significantly increased cell survival	85	75	–	–	–	–	–
N.N.O=C([O-])C1(C(=O)[O-])CCC1.[Pt+2] [carboplatin]	–	–	–	–	1.73	0.45	2.13	0.77	0.55
